Experimental data: PubChem BioAssay AID1259407 (Chemical Carcinogenesis Research Information System (CCRIS), 2018)
The source made the active and inactive calls. No rule for the calls is given here.

Test system: CCRIS mutagenicity, Ames/micronucleus/aberration tests
Assay: CCRIS mutagenicity studies
[1] = Test System: AMES SALMONELLA TYPHIMURIUM, Strain/Indicator: TA98, Metabolic Activation: NONE, Method: PREINCUBATION
[2] = Test System: AMES SALMONELLA TYPHIMURIUM, Strain/Indicator: TA100, Metabolic Activation: NONE, Method: PREINCUBATION
[3] = Test System: UDS RAT HEPATOCYTES, Strain/Indicator: THY INCORP, Metabolic Activation: NONE, Method: AUTORADIOGRAPHY
[4] = Test System: AMES SALMONELLA TYPHIMURIUM, Strain/Indicator: TA102, Metabolic Activation: NONE, Method: PREINCUBATION

Compound: CNC(=O)ON=CC(C)(C)SC
- mutagenic call (End Point: IN VIVO CHROMOSOMAL ABERRATIONS, Test System: BONE MARROW CELLS, Species: RAT, Strain/Sex: MALE, Route: ORAL (GAVAGE)): active; positive (structural and ploidy changes)
- mutagenic call (End Point: IN VIVO MICRONUCLEUS, Test System: BONE MARROW POLYCHROMATIC ERYTHROCYTES, Species: RAT, Strain/Sex: MALE, Route: ORAL (GAVAGE)): active; positive
- mutagenic call (Test System: AMES SALMONELLA TYPHIMURIUM, Strain/Indicator: TA97, Metabolic Activation: HAMSTER, LIVER, S-9, AROCLOR 1254 (10 OR 30%), Method: PREINCUBATION): inactive; negative
- mutagenic call (Test System: AMES SALMONELLA TYPHIMURIUM, Strain/Indicator: TA97, Metabolic Activation: NONE, Method: PREINCUBATION): inactive; negative
- mutagenic call (Test System: AMES SALMONELLA TYPHIMURIUM, Strain/Indicator: TA97, Metabolic Activation: RAT, LIVER, S-9, AROCLOR 1254 (10 OR 30%), Method: PREINCUBATION): inactive; negative
- mutagenic call (Test System: AMES SALMONELLA TYPHIMURIUM, Strain/Indicator: TA98, Metabolic Activation: HAMSTER, LIVER, S-9, AROCLOR 1254 (10 OR 30%), Method: PREINCUBATION): inactive; negative
- mutagenic call [1]: inactive; negative
- mutagenic call (Test System: AMES SALMONELLA TYPHIMURIUM, Strain/Indicator: TA98, Metabolic Activation: RAT, LIVER, S-9, AROCLOR 1254 (10 OR 30%), Method: PREINCUBATION): inactive; negative
- mutagenic call (Test System: AMES SALMONELLA TYPHIMURIUM, Strain/Indicator: TA100, Metabolic Activation: HAMSTER, LIVER, S-9, AROCLOR 1254 (10 OR 30%), Method: PREINCUBATION): inactive; negative
- mutagenic call [2]: inactive; negative
- mutagenic call (Test System: AMES SALMONELLA TYPHIMURIUM, Strain/Indicator: TA100, Metabolic Activation: RAT, LIVER, S-9, AROCLOR 1254 (10 OR 30%), Method: PREINCUBATION): inactive; negative
- mutagenic call (Test System: AMES SALMONELLA TYPHIMURIUM, Strain/Indicator: TA1535, Metabolic Activation: HAMSTER, LIVER, S-9, AROCLOR 1254 (10 OR 30%), Method: PREINCUBATION): inactive; negative
- mutagenic call (Test System: AMES SALMONELLA TYPHIMURIUM, Strain/Indicator: TA1535, Metabolic Activation: NONE, Method: PREINCUBATION): inactive; negative
- mutagenic call (Test System: AMES SALMONELLA TYPHIMURIUM, Strain/Indicator: TA1535, Metabolic Activation: RAT, LIVER, S-9, AROCLOR 1254 (10 OR 30%), Method: PREINCUBATION): inactive; negative
- mutagenic call (Test System: AMES SALMONELLA TYPHIMURIUM, Strain/Indicator: TA1537, Metabolic Activation: HAMSTER, LIVER, S-9, AROCLOR 1254 (10 OR 30%), Method: PREINCUBATION): inactive; negative
- mutagenic call (Test System: AMES SALMONELLA TYPHIMURIUM, Strain/Indicator: TA1537, Metabolic Activation: NONE, Method: PREINCUBATION): inactive; negative
- mutagenic call (Test System: AMES SALMONELLA TYPHIMURIUM, Strain/Indicator: TA1537, Metabolic Activation: RAT, LIVER, S-9, AROCLOR 1254 (10 OR 30%), Method: PREINCUBATION): inactive; negative
- mutagenic call (Test System: E. COLI, Strain/Indicator: WP2 UVRA, Metabolic Activation: HAMSTER, LIVER, S-9, AROCLOR 1254, Method: STANDARD PLATE): inactive; negative
- mutagenic call (Test System: E. COLI, Strain/Indicator: WP2 UVRA, Metabolic Activation: HAMSTER, LIVER, S-9, Method: STANDARD PLATE): inactive; negative
- mutagenic call (Test System: E. COLI, Strain/Indicator: WP2 UVRA, Metabolic Activation: MOUSE, LIVER, S-9, AROCLOR 1254, Method: STANDARD PLATE): inactive; negative
- mutagenic call (Test System: E. COLI, Strain/Indicator: WP2 UVRA, Metabolic Activation: MOUSE, LIVER, S-9, Method: STANDARD PLATE): inactive; negative
- mutagenic call (Test System: E. COLI, Strain/Indicator: WP2 UVRA, Metabolic Activation: NONE, Method: STANDARD PLATE): inactive; negative
- mutagenic call (Test System: E. COLI, Strain/Indicator: WP2 UVRA, Metabolic Activation: RAT, LIVER, S-9, AROCLOR 1254, Method: STANDARD PLATE): inactive; negative
- mutagenic call (Test System: E. COLI, Strain/Indicator: WP2 UVRA, Metabolic Activation: RAT, LIVER, S-9, Method: STANDARD PLATE): inactive; negative
- mutagenic call (Test System: MOUSE LYMPHOMA, Strain/Indicator: L5178Y (TK+/TK-), Metabolic Activation: NONE, Method: SUSPENSION/PLATE): active; positive
- mutagenic call (Test System: MOUSE LYMPHOMA, Strain/Indicator: L5178Y (TK+/TK-), Metabolic Activation: RAT, LIVER, S-9, AROCLOR 1254, Method: SUSPENSION/PLATE): active; positive
- mutagenic call (Test System: MOUSE LYMPHOMA, Strain/Indicator: L5178Y (TK+/TK-), Metabolic Activation: RAT, LIVER, S-9, Method: SUSPENSION/PLATE): active; positive

Compound: C=CCSSSCC=C
- mutagenic call [3]: inactive; negative

Compound: Cc1ccc(C=O)cc1
- mutagenic call [1]: inactive; negative
- mutagenic call (Test System: AMES SALMONELLA TYPHIMURIUM, Strain/Indicator: TA98, Metabolic Activation: RAT, LIVER, S-9, AROCLOR 1254, Method: PREINCUBATION): inactive; negative
- mutagenic call [2]: inactive; negative
- mutagenic call (Test System: AMES SALMONELLA TYPHIMURIUM, Strain/Indicator: TA100, Metabolic Activation: RAT, LIVER, S-9, AROCLOR 1254, Method: PREINCUBATION): inactive; negative
- mutagenic call [4]: inactive; negative
- mutagenic call (Test System: AMES SALMONELLA TYPHIMURIUM, Strain/Indicator: TA102, Metabolic Activation: RAT, LIVER, S-9, AROCLOR 1254, Method: PREINCUBATION): inactive; negative

Compound: CCCC=O
- mutagenic call (End Point: IN VITRO CHROMOSOMAL ABERRATIONS, Test System: CHINESE HAMSTER OVARY CELLS, Metabolic Activation: NONE): inactive; negative
- mutagenic call (End Point: IN VITRO CHROMOSOMAL ABERRATIONS, Test System: CHINESE HAMSTER OVARY CELLS, Metabolic Activation: RAT, LIVER, S-9, AROCLOR 1254): inactive; negative
- mutagenic call (End Point: In vitro chromosomal aberrations, Test System: Chinese hamster lung (CHL/IU) cells, Metabolic Activation: Rat, Liver, S9, Phenobarbital and 5,6-benzoflavone): active; positive (structural changes). ploidy not dose related.
- mutagenic call [2]: inactive; negative
- mutagenic call (Test System: AMES SALMONELLA TYPHIMURIUM, Strain/Indicator: TA100, Metabolic Activation: RAT LIVER S-9, AROCLOR 1254, Method: PREINCUBATION): inactive; negative
- mutagenic call [4]: inactive; negative
- mutagenic call (Test System: AMES SALMONELLA TYPHIMURIUM, Strain/Indicator: TA102, Metabolic Activation: RAT LIVER S-9, AROCLOR 1254, Method: PREINCUBATION): inactive; negative
- mutagenic call (Test System: AMES SALMONELLA TYPHIMURIUM, Strain/Indicator: TA104, Metabolic Activation: NONE, Method: PREINCUBATION): inactive; negative
- mutagenic call (Test System: AMES SALMONELLA TYPHIMURIUM, Strain/Indicator: TA104, Metabolic Activation: RAT LIVER S-9, AROCLOR 1254, Method: PREINCUBATION): inactive; negative
- mutagenic call (Test System: CHINESE HAMSTER V-79, Strain/Indicator: V-79/6-THIOGUANINE (HGPRT), Metabolic Activation: NONE, Method: REPLATING): active; positive
- mutagenic call (Test System: CHINESE HAMSTER V-79, Strain/Indicator: V-79/OUABAIN (NA/K), Metabolic Activation: NONE, Method: REPLATING): active; positive
- mutagenic call (Test System: UDS HUMAN HEPATOCYTES, Strain/Indicator: THY INCORP, Metabolic Activation: NONE, Method: AUTORADIOGRAPHY): inactive; negative
- mutagenic call [3]: active; positive

Compound: CC(=O)N=C1C=CC(=O)C=C1
- mutagenic call [1]: inactive; negative
- mutagenic call [4]: inactive; negative
- mutagenic call (Test System: UDS MOUSE HEPATOCYTES, Strain/Indicator: THY INCORP (NON-S-PHASE), Metabolic Activation: NONE, Method: LIQUID SCINTILLATION COUNTING): inactive; negative
